Laboratory results: patent publication US11725173B2, “Highly efficient organoid culture device and system” (CELLARTGEN INC., priority 2018, dated 2023)

Experiments:
Assay type in all cases: cell-based
liver organoid [1] = assay: GSH and ROS distribution by monochlorobimane (mBCL) and dihydroethidium (DHE) assay in liver organoid; conditions: liver organoid of the THE-F group, APAP 2 to 50 mM
liver organoid [2] = assay: Toxicity test of liver organoid under drug concentration gradient (syringe pump and mixing channel); conditions: cultured 48 hours under gradient formed from 50 mM APAP medium and medium containing no APAP
CYP7A1 = CYP7A1 gene expression in liver organoid cultured alone or co-cultured with intestine organoid, bile acid in culture medium; conditions: compared with DMSO control
Description: (§1) Co-culture of the induced liver organoid and the adult stem cell-derived intestine organoid was performed, and the interaction between the two organoids was analyzed.

albumin gene = assay: Albumin gene expression in liver organoid cultured alone or co-cultured with intestine organoid, bile acid in culture medium; conditions: all conditions (liver organoid alone or co-cultured with intestine organoid); compared with DMSO control
Description: as §1

Compound | intracellular toxicity and damage of the liver organoid (liver organoid [1]) | fluorescence of DHE (reactive oxygen species formation) (liver organoid [1]; at higher concentrations) | fluorescence of mBCL (intracellular glutathione, GSH) (liver organoid [1]; at higher concentrations) | cytotoxicity in the liver organoid (liver organoid [2]) | expression level of CYP7A1 (CYP7A1; liver organoid co-cultured with intestine organoid) | expression level of CYP7A1 (CYP7A1; liver organoid cultured alone) | albumin gene expression (albumin gene)
CC(=O)Nc1ccc(O)cc1 [APAP, acetaminophen] | increased with an increasing concentration | higher | lower | increased as the drug concentration increased | – | – | –
C[C@H](CCC(=O)O)[C@H]1CC[C@H]2[C@@H]3[C@H](O)C[C@@H]4C[C@H](O)CC[C@]4(C)[C@H]3CC[C@]12C [CDCA, chenodeoxycholic acid] | – | – | – | – | a decrease | no difference | no difference in all conditions
